Test results as given in PubChem BioAssay (NCI).
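Briefly, cells in 96-well plates were exposed to five compound concentrations for 48 h, and endpoints were estimated by linear interpolation. TGI is the concentration that stops growth completely.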

How the values were obtained:
Assay in all cases: NCI anticancer screen, dose series, 48 h
DLD-1 colon = tested on: DLD-1 colon
LXFL 529 NSCLC = tested on: LXFL 529 NSCLC
DMS 273 small cell lung = tested on: DMS 273 small cell lung
M19-MEL melanoma = tested on: M19-MEL melanoma
SNB-78 CNS = tested on: SNB-78 CNS
KM20L2 colon = tested on: KM20L2 colon
XF 498 CNS = tested on: XF 498 CNS
HOP-18 NSCLC = tested on: HOP-18 NSCLC

| SMILES | TGI (DLD-1 colon) [µM] | TGI (LXFL 529 NSCLC) [µM] | TGI (DMS 273 small cell lung) [µM] | TGI (M19-MEL melanoma) [µM] | TGI (SNB-78 CNS) [µM] | TGI (KM20L2 colon) [µM] | TGI (XF 498 CNS) [µM] | TGI (HOP-18 NSCLC) [µM] |
| --- | --- | --- | --- | --- | --- | --- | --- | --- |
| CC(C)=CCC/C(C)=C/Cc1c(O)c(C)cc2c1[nH]c1cc(O)ccc12 | > 25 | > 25 | > 25 | > 25 | > 25 | > 25 |  |  |
| NCCCC(N=Cc1nc(-c2ccccc2)oc1O)C(=O)O (centres undefined) | > 100 | > 100 | > 100 | > 100 | > 100 | > 100 | > 100 |  |
| CCOC(=O)C1=C(O)C(=O)c2ccoc2C1=O |  |  | > 100 | > 100 | > 100 | > 100 | > 100 | > 100 |
